According to publication PMC10762035, “Molecular basis of human trace amine-associated receptor 1 activation” (Nature Communications, 2024):
Positions count from the first letter of the chain named. Several values for one entry are separate records, joined by “and”; a condition that tells them apart may be missing. Equal entries are not always repeated. Where two headings read alike, the source gives them in different places.

Assays:
Type in all cases: cell-based
hTA1 F195T = biological target: T1, hTA1 F195T (Homo sapiens, UniProt Q96RJ0, F195T); assay: GloSensor cAMP accumulation assay, F195T mutant; conditions: F195T;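 note: cells transiently co-expressing HA-FLAG-tagged hTA1 and the GloSensor cAMP biosensor, luminescence read 30 min after agonist addition at room temperature, concentration-response fitted by nonlinear regression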
T1 construct: expressed in transfected cells; host or cells: HEK293T
T1 sequence (Q96RJ0 1-339 F195T): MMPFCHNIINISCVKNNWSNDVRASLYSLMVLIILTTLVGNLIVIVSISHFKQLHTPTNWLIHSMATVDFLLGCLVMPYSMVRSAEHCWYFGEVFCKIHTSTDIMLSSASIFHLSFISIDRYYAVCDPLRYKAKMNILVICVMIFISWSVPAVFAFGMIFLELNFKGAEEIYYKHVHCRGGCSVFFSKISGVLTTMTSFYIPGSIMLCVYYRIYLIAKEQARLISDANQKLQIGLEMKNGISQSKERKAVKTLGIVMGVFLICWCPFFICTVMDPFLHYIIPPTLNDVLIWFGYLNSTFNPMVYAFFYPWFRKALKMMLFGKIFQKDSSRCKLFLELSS

hTA1 I290Y = biological target: T2, hTA1 I290Y (Homo sapiens, UniProt Q96RJ0, I290Y); assay: GloSensor cAMP accumulation assay, I290Y mutant; conditions: for Normalized Luminescence Counts for Concentration Response Curves: I120Y, log[Agonist], single replicates
T2 construct: expressed in transfected cells; host or cells: HEK293T
T2 sequence (Q96RJ0 1-339 I290Y): T1 sequence (Q96RJ0 1-339 F195T) with T195F, I290Y

hTA1 S107C = biological target: T3, hTA1 S107C (Homo sapiens, UniProt Q96RJ0, S107C); assay: GloSensor cAMP accumulation assay, S107C mutant; conditions: S107C;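 note: cells transiently co-expressing receptor and GloSensor biosensor, luminescence read after 30 min agonist exposure at room temperature, concentration-response fitted by nonlinear regression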
T3 construct: expressed in transfected cells; host or cells: HEK293T
T3 sequence (Q96RJ0 1-339 S107C): T1 sequence (Q96RJ0 1-339 F195T) with S107C, T195F

hTA1 C88S = biological target: T4, hTA1 C88S (Homo sapiens, UniProt Q96RJ0, C88S); assay: GloSensor cAMP accumulation assay, C88S mutant; conditions: for Normalized Luminescence Counts: C88S (N=2), log[Agonist]
T4 construct: expressed in transfected cells; host or cells: HEK293T
T4 sequence (Q96RJ0 1-339 C88S): T1 sequence (Q96RJ0 1-339 F195T) with C88S, T195F

hTA1 T271A = biological target: T5, hTA1 T271A (Homo sapiens, UniProt Q96RJ0, T271A); assay: GloSensor cAMP accumulation assay, T271A mutant
T5 construct: expressed in transfected cells; host or cells: HEK293T
T5 sequence (Q96RJ0 1-339 T271A): T1 sequence (Q96RJ0 1-339 F195T) with T195F, T271A

[1] = Asenapine, per experiment, 3 replicates
[2] = Asenapine, per experiment, 3 replicates, read-out: pEC50 values Mean (converted)
[3] = n=2, read-out: Span ± SEM (Emax normalized to β-PEA)

## CN1CC2c3ccccc3Oc3ccc(Cl)cc3C2C1 (stereo not drawn) [asenapine]
hTA1 F195T
  increase in potency vs wild type: 3 fold
hTA1 F195T; Asenapine
  ΔpEC50 values (each mutant value - WT average), Mean: -0.004135 and 0.1049
hTA1 F195T; [1]
  Emax values, Mean: 90.8432 and 72.9114
hTA1 F195T; [2]
  EC50: 87.4 nM and 68 nM
hTA1 F195T; n=2, read-out: EC50
  EC50: 77.1 nM
hTA1 F195T; [3]
  Emax: 81.9 ± 8.97%
hTA1 I290Y; M -7
  Normalized Luminescence Counts for Concentration Response Curves: 15.0486 and 28.2836 and 14.433 and 14.2815 and 11.35 and 10.6171 and 4.9397 and 9.4516 and 7.196
hTA1 I290Y; M -7.522
  Normalized Luminescence Counts for Concentration Response Curves: 3.6603 and 8.277 and 2.121 and 8.052 and 3.288 and 0.7233 and -1.828 and 2.684 and 1.556
hTA1 I290Y; M -8
  Normalized Luminescence Counts for Concentration Response Curves: 2.121 and 5.507 and 1.506 and 4.021 and -2.208 and 3.288 and -1.828 and -2.956 and -5.212
hTA1 I290Y; M -8.522
  Normalized Luminescence Counts for Concentration Response Curves: -2.188 and 0.2746 and -1.264 and -1.842 (2×) and -4.04 and -6.34 and -5.212 (2×)
hTA1 I290Y; M -9
  Normalized Luminescence Counts for Concentration Response Curves: -1.572 and -0.6488 and -1.264 and -5.506 and -1.109 and -5.873 and -4.0841 and -5.212 (2×)
hTA1 I290Y; M -9.522
  Normalized Luminescence Counts for Concentration Response Curves: -3.419 and -1.264 and -3.7267 and -3.674 and -1.109 and -6.239 and -5.212 (2×) and -4.0841
hTA1 I290Y; M -10
  Normalized Luminescence Counts for Concentration Response Curves: -2.496 and -2.188 and -2.803 and -2.575 and 2.189 and 2.922 and -4.0841 and -1.828 and -2.956
hTA1 I290Y; M -10.522
  Normalized Luminescence Counts for Concentration Response Curves: -1.88 (2×) and -1.264 and -6.605 (2×) and -3.307 and -1.828 (2×) and -0.7002
hTA1 I290Y; M -11
  Normalized Luminescence Counts for Concentration Response Curves: -2.188 and -1.88 and -2.496 and -2.575 and -5.506 and -7.705 and -6.34 and -4.0841 and -5.212
hTA1 I290Y; M -11.522
  Normalized Luminescence Counts for Concentration Response Curves: -2.188 and -1.264 (2×) and -1.475 and -4.773 and -4.407 and -4.0841 (2×) and -2.956
hTA1 I290Y; M -12
  Normalized Luminescence Counts for Concentration Response Curves: -3.111 and -2.496 and -2.188 and -5.873 and -5.14 and -2.941 and -1.828 and -2.956 and -4.0841
hTA1 I290Y; M -12.522
  Normalized Luminescence Counts for Concentration Response Curves: -3.7267
hTA1 I290Y; I290Y, Mean of one experiment
  Emax values of Asenapine: 56.131 and 42.2396
hTA1 I290Y; I290Y, Mean of one experiment, read-out: Emax values of Asenapine
  Emax: 54.9%
hTA1 I290Y; I290Y, Mean of one experiment, read-out: pEC50 values of Asenapine (converted)
  EC50: 252 nM and 215 nM and 383 nM
hTA1 I290Y; I290Y, read-out: EC50
  EC50: 275 nM
hTA1 I290Y; I290Y, read-out: Span ± SEM (Emax normalized to β-PEA)
  Emax: 51.1 ± 4.43%
hTA1 I290Y; I290Y, relative to β-PEA, read-out: Emax
  Emax: 51.1%
hTA1 I290Y; hTA1 I290Y mutant vs WT average, Figure 6B, each line is one experiment (3 replicates)
  ΔEmax values (each mutant value - WT average), I290Y, Mean: -33.855 and -32.5762 and -46.4677
hTA1 S107C; [1]
  Emax values, Mean: 91.6842 and 105.217
hTA1 S107C; [2]
  EC50: 383 nM and 996 nM
hTA1 S107C; n=2, read-out: EC50
  EC50: 618 nM
hTA1 S107C; [3]
  Emax: 98.5 ± 6.76%
hTA1 C88S; Asenapine, M -5
  Normalized Luminescence Counts: 78.2534 and 81.5764 and 79.8011 and 111.871 and 108.238 and 123.304
hTA1 C88S; Asenapine, M -5.522
  Normalized Luminescence Counts: 94.436 and 87.9948 and 83.989 and 130.463 and 114.596 and 122.075
hTA1 C88S; Asenapine, M -6
  Normalized Luminescence Counts: 79.8011 and 74.9077 and 70.7881 and 118.656 and 108.719 and 100.545
hTA1 C88S; Asenapine, M -6.522
  Normalized Luminescence Counts: 57.5416 and 54.7649 and 49.5528 and 65.7127 and 60.6375 and 65.5525
hTA1 C88S; Asenapine, M -7
  Normalized Luminescence Counts: 23.993 and 22.8778 and 24.6531 and 32.3228 and 28.1557 and 35.9556
hTA1 C88S; Asenapine, M -7.522
  Normalized Luminescence Counts: 10.9969 and 9.859 and 9.563 and 7.801 and 8.763 and 9.724
hTA1 C88S; Asenapine, M -8
  Normalized Luminescence Counts: 6.65 and 6.24 and 5.148 and 4.382 and 5.237 and 6.305
hTA1 C88S; C88S, Asenapine
  ΔpEC50 values (each mutant value - WT average), Mean: -0.4947 and -0.3839
hTA1 C88S; C88S, Asenapine, per experiment, 3 replicates
  Emax values, Mean: 126.964 and 89.044
hTA1 C88S; C88S, Asenapine, per experiment, 3 replicates, read-out: pEC50 values Mean (converted)
  EC50: 270 nM and 210 nM
hTA1 C88S; C88S, n=2, read-out: EC50
  EC50: 238 nM
hTA1 C88S; C88S, relative to β-PEA, read-out: Emax
  Emax: 108%
hTA1 T271A; T271A
  reduction in potency vs wild type: roughly 4 fold
hTA1 T271A; T271A, Mean of one experiment
  Emax values of Asenapine: 88.882
hTA1 T271A; T271A, Mean of one experiment, read-out: Emax values of Asenapine
  Emax: 101%
hTA1 T271A; T271A, Mean of one experiment, read-out: pEC50 values of Asenapine (converted)
  EC50: 1300 nM and 1020 nM
hTA1 T271A; T271A, n=2, read-out: EC50
  EC50: 1150 nM
hTA1 T271A; T271A, n=2, read-out: Span ± SEM (Emax normalized to β-PEA)
  Emax: 94.8 ± 5.91%
hTA1 T271A; hTA1 T271A mutant vs WT average, Figure 6B, each line is one experiment (3 replicates)
  ΔEmax values (each mutant value - WT average), T271A, Mean: 11.9925 and 0.1748
